Reference: patent US20240091292A1, “METHODS FOR TREATMENT OF HUMAN CANCERS USING CANNABIS COMPOSITIONS” (Apollon Formularies PLC, priority 2021, published 2024)

What was measured:
Format in all cases: cell-based
A-549 = test: 3D Cell Proliferation Screen, A-549; conditions: Homo sapiens, A549, 120 h, A-549 lung spheroids, 5 days, positive control
Description: (§1) Experimental Methods: 3D Cell Proliferation Assay
(§2) Cells were seeded at 1000 cells/well in media in 384-well Corning® Spheroid microplates. The microplates were incubated at 37 C in 5% CO2 incubator to allow for spheroid formation.
(§3) Aliquots of each sample were vortexed and centrifuged at 3,000 rpm (800 g) for 5 minutes at room temperature. Supernatants (500-fold stocks) were stored under sterile conditions at 4 C.
(§4) On the day of the assay, a 9-point dose-response of each 500-fold stock was prepared and added to the spheroid plates to provide final assay concentrations ranging from 1e-04 to 1-fold, in 0.2% DMSO. Final assay conditions for each sample are shown on Table 1.
(§5) Assay plates were incubated at 37 C in an atmosphere containing 5% CO2 for 5 days. […] Cell viability was determined at 5 days post-compound addition. Briefly, 3D-CellTiter Glow™ reagent (Promega) was added to assay plates per the manufacturer's recommendations. Plates were shaken until spheroids were lysed and luminescence was read at room temperature.
(§6) Cell proliferation end point was analyzed as Percent of Control (POC) using the following formula: […]
(§7) EC50, IC50 and GI50 values were calculated using nonlinear regression to fit data to a sigmoidal 4-point, 4-parameter log-logistic dose response model: […]

HT-29 = test: 3D Cell Proliferation Screen, HT-29; conditions: Homo sapiens, 120 h, HT-29 colon spheroids, 5 days, positive control
Description: as §1, §2, §3, §4, §5, §6
(§8) A relative cell count EC50 is the concentration of the test compound that produces a response half-way between the maximum and baseline. Relative cell count IC50 is the concentration of the test compound that produces 50% of the cell proliferation inhibitory response or 50% cytotoxicity level. GI50 is the concentration of the test compound that produces 50% reduction in proliferation of cancer cells relative to T0. The output of each biomarker is fold-increase over vehicle control background normalized to the relative cell count in each well.
(§9) EC50, IC50 and GI50 values were calculated using nonlinear regression to fit data to a sigmoidal 4-point, 4-parameter log-logistic dose response model:
(§10) Curve-fitting and EC50 calculations were performed using the R statistical software package with R's drc library.

T24 = test: 3D Cell Proliferation Screen, T24; conditions: Homo sapiens, T-24, 120 h, T24 bladder spheroids, 5 days, positive control
Description: as §1, §2, §3, §4, §5, §6, §8, §9, §10

BT-474 = test: 3D Cell Proliferation Screen, BT-474; conditions: Homo sapiens, 120 h; BT-474 breast spheroids, 5 days; relative to T0; positive control
Description: as §1, §2, §3, §4, §5, §6, §7

PC-3 = test: 3D Cell Proliferation Screen, PC-3; conditions: Homo sapiens, 120 h, PC-3 prostate spheroids, 5 days, positive control
Description: as §1, §2, §3, §4, §5, §6, §7

22Rv-1 = test: 3D Cell Proliferation Screen, 22Rv-1; conditions: Homo sapiens, 22Rv1, 120 h; 22Rv-1 prostate spheroids, 5 days; relative to T0; positive control
Description: as §1, §2, §3, §4, §5, §6, §7

NCI-H460 = test: 3D Cell Proliferation Screen, NCI-H460; conditions: Homo sapiens, 120 h; NCI-H460 lung spheroids, 5 days; relative to T0; positive control
Description: as §1, §2, §3, §4, §5, §6, §7

T-47D = test: 3D Cell Proliferation Screen, T-47D; conditions: Homo sapiens, T47D, 120 h, T-47D breast spheroids, 5 days, positive control
Description: as §1, §2, §3, §4, §5, §6, §8, §9, §10

`CN[C@@H]1C[C@H]2O[C@@](C)([C@@H]1OC)n1c3ccccc3c3c4c(c5c6ccccc6n2c5c31)C(=O)NC4` [Staurosporine] was tested, and the EC50 (A-549) was 17 nM, the GI50 (A-549; relative to T0) was 11 nM and the EC50 (HT-29) was 9 nM. For the same compound, the IC50 (HT-29) was 9 nM, the GI50 (HT-29; relative to T0) was 7 nM and the EC50 (T24) was 13 nM. It also gave an IC50 (T24) of 13 nM, a GI50 (T24; relative to T0) of 1 nM and a GI50 (BT-474) of 3 nM. For the same compound, the IC50 (PC-3) was 4 nM, the GI50 (PC-3; relative to T0) was 1 nM and the GI50 (22Rv-1) was 13 nM. It also gave a GI50 (NCI-H460) of 17 nM, an EC50 (T-47D) of 101 nM and an IC50 (T-47D) of 101 nM. It also gave a GI50 (T-47D; relative to T0) of 38 nM.
